# Results: publication PMC8954792 (Viruses, 2022)
# Key:
# [1] = system: SARS-CoV-2 PsV; assay: microbe, parasite or virus in culture; format: cell-based; settings: Severe acute respiratory syndrome coronavirus 2
# [2] = system: pseudotyped SARS-CoV-2 Alpha (B.1.1.7); assay: microbe, parasite or virus in culture; format: cell-based; settings: Severe acute respiratory syndrome coronavirus 2, Caco-2
# [3] = system: pseudotyped SARS-CoV-2 Beta (B.1.351); assay: microbe, parasite or virus in culture; format: cell-based; settings: Severe acute respiratory syndrome coronavirus 2, Caco-2
# [4] = system: pseudotyped SARS-CoV-2 Gamma (P.1); assay: microbe, parasite or virus in culture; format: cell-based; settings: Severe acute respiratory syndrome coronavirus 2, Caco-2
# [5] = system: pseudotyped SARS-CoV-2 Omicron (B.1.1.529); assay: microbe, parasite or virus in culture; format: cell-based; settings: Severe acute respiratory syndrome coronavirus 2, Caco-2
# [6] = system: authentic SARS-CoV-2 WT (nCoV-SH01); assay: microbe, parasite or virus in culture; format: cell-based; settings: Severe acute respiratory syndrome coronavirus 2, Vero C1008
# [7] = system: cell-free SARS-CoV-2 PsV; assay: Inactivation of cell-free SARS-CoV-2 PsV; format: cell-based; settings: Severe acute respiratory syndrome coronavirus 2
# [8] = system: H5N1 PsV; assay: microbe, parasite or virus in culture; format: cell-based, influenza virus; settings: Influenza A virus, H5N1, MDCK, read-out: IC50 H5N1
# [9] = system: H7N9 PsV; assay: microbe, parasite or virus in culture; format: cell-based, influenza virus; settings: Influenza A virus, H7N9, MDCK, read-out: IC50 H7N9
# [10] = system: SARS-CoV PsV
# [11] = system: cell-free SARS-CoV PsV
# [12] = system: MERS-CoV PsV
# [13] = in vitro; settings: dog
# [14] = Cytotoxicity (CCK-8) on Huh-7 cells; settings: human
# [15] = system: SARS-CoV PsV; assay: microbe, parasite or virus in culture; settings: Severe acute respiratory syndrome coronavirus
# [16] = system: cell-free SARS-CoV PsV; assay: microbe, parasite or virus in culture; settings: Severe acute respiratory syndrome coronavirus
# [17] = system: MERS-CoV PsV; assay: microbe, parasite or virus in culture; settings: Middle East respiratory syndrome-related coronavirus, Huh-7
# [18] = system: cell-free MERS-CoV PsV; assay: microbe, parasite or virus in culture; settings: Middle East respiratory syndrome-related coronavirus, Huh-7
# [19] = Cytotoxicity (CCK-8) on hACE2-293T cells; settings: human
# [20] = system: authentic HCoV-OC43; assay: CPE reduction assay, authentic HCoV-OC43; format: cell-based; settings: Betacoronavirus 1; HCoV-OC43 infection, RD cells, CCK-8
# [21] = system: EBOV (Zaire); assay: microbe, parasite or virus in culture; format: cell-based, Ebola virus; settings: Zaire ebolavirus, Huh-7
# [22] = system: EBOV (Sudan); assay: microbe, parasite or virus in culture; format: cell-based, Ebola virus; settings: Zaire ebolavirus, Huh-7
# [23] = system: NiV; assay: microbe, parasite or virus in culture; format: cell-based, Nipah virus; settings: Henipavirus nipahense, U-87 MG
# [24] = system: LASV; assay: organism not typed; format: cell-based, Lassa fever virus; settings: Huh-7
# [25] = system: authentic ZIKV PRVABC59 (2015/Puerto Rico); assay: microbe, parasite or virus in culture; format: cell-based; settings: Zika virus, Vero C1008
# [26] = system: VSV PsV; assay: microbe, parasite or virus in culture; format: cell-based, vesicular stomatitis virus; settings: Vesicular stomatitis virus, Huh-7
# [27] = system: HPV PsV; format: cell-based, human papilloma virus
# [28] = system: authentic EV71; assay: CPE reduction assay, authentic EV71; format: cell-based, human enterovirus 71 virus; settings: RD cells
# [29] = target: HIV-1 6-HB (Human immunodeficiency virus type 1, UniProt P04578); assay: Inhibition of HIV-1 6-HB formation (ELISA); format: biochemical; settings: HIV-1 6-HB formation measured by ELISA
# Sequence of HIV-1 6-HB (P04578 536-581, added parts left off): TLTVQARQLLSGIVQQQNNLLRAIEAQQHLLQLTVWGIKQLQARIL
# Sequence of HIV-1 6-HB (P04578 536-581, added parts left off): as above
# [30] = system: SARS-CoV-2 PsV; format: cell-based
# [31] = system: Vero E6 cells; format: cell-based
# [32] = system: cell-free MERS-CoV PsV
Compound,IC50 [1] [nM],IC50 [2] [nM],IC50 [3] [nM],IC50 [4] [nM],IC50 [5] [nM],IC50 [6] [nM],EC50 [7] [nM],IC50 [8] [nM],IC50 [9] [nM],SI CC50/IC50 [10],SI CC50/EC50 [11],SI CC50/IC50 [12],CC50 [13] [nM],CC50 at 48 h [14] [nM],IC50 [15] [nM],EC50 [16] [nM],IC50 [17] [nM],EC50 [18] [nM],CC50 at 48 h [19] [nM],inhibition of SARS-CoV-2 PsV infection after unbound compound washed from cells [30],also measured
O=C(O)c1cc(-c2ccc(/C=C3\SC(=S)N(CCc4ccc(OCc5ccc(F)cc5)cc4)C3=O)o2)ccc1Cl [FD010],360,1040,1550,870,2880,40,90,970 ± 210,5880 ± 610,70.41,107.47,372.25,> 50000,44700 ± 1260,290 ± 30,190 ± 30,120 ± 10,40 ± 10,20400 ± 1000,–,–
O=C(O)c1cc(-c2ccc(/C=C3\SC(=S)N(CCc4ccc(OCC5CC5)cc4)C3=O)o2)ccc1Cl [FD012],30,350,270,250,770,410,40,150 ± 10,230 ± 20,–,102.50,169.27,41700,18600 ± 350,20 ± 10,120 ± 10,110 ± 10,50 ± 10,12300 ± 340,not effective in inhibiting viral infection after washing,IC50 [20]: 110 nM; IC50 [21]: 90 ± 20 nM; IC50 [22]: 190 ± 20 nM; IC50 [23]: 70 ± 10 nM; IC50 [24]: 320 ± 40 nM; IC50 [25]: 910 nM; IC50 [26]: 5 nM; inhibition of infection of nonenveloped HPV PsV [27]: could not inhibit; inhibition of infection of authentic EV71 [28]: could not inhibit; IC50 [29]: 50100 nM; fluorescence intensity of treated cells (binding to cells) [31]: positively correlated with compound concentration; inhibitory activity relative to FD001 [10]: ~10 fold; SI CC50/EC50 [32]: 372.40
O=C(O)c1cc(-c2ccc(/C=C3\SC(=S)N(CCc4ccc(OCc5ccsc5)cc4)C3=O)o2)ccc1Cl [FD013],120,400,310,410,980,30,70,260 ± 20,3540 ± 890,372.40,186.20,618.00,> 50000,30900 ± 630,50 ± 10,100 ± 10,50 ± 10,30 ± 10,18600 ± 230,not effective in inhibiting viral infection after washing,–
"CCC(CC)COC(=O)[C@H](C)N[P@](=O)(OC[C@H]1O[C@@](C#N)(c2ccc3c(N)ncnn23)[C@H](O)[C@@H]1O)Oc1ccccc1 [Remdesivir, remdesivir, reference compound]",–,–,–,–,–,1090,–,–,–,–,–,–,–,–,–,–,–,–,–,–,–
